A short description of this series: ABTS degradation, comparison with tocopherol after dark or UV exposure. Particulars: colloids 0.5 g/L, tocopherol 1.5 g/L. As for the experimental part:
The protocol for preparing the solutions as in point 4.1/ was repeated with a concentration of ZnO/3-hydroxybenzaldehyde colloids of 0.5 g/L and a concentration of tocopherol of 1.5 g/L.
The solutions obtained were separated: a fraction of the solution being placed in the dark, and the remaining fraction being placed under UV irradiation. After 30 minutes of exposure (to the dark or to UV), 30 μL of a concentrated solution of ABTS (7 mM) was added, and the absorption was then measured.

As to tocopherol, the ABTS degradation capacity by setting is: (after 30 minutes of exposure to UV) 22%; (after 30 minutes of exposure to the dark) 22%.
